The values that follow come from publication PMC6757289, “Design and Characterization of SGK3-PROTAC1, an Isoform Specific SGK3 Kinase PROTAC Degrader” (ACS Chemical Biology, 2019).

Common to all, as to assay: kinase profiling panel
Assay type in all cases: biochemical
What all share (details): read-out: % Activity Remaining

For one assay, the target named is CAMK1 (Homo sapiens, UniProt Q14012). The source says: (§1) Protein kinase profiling against a Dundee panel of 140 protein kinases was undertaken at the International Centre for Protein Kinase Profiling. The result for each kinase was presented as a mean kinase activity of the reaction taken in triplicate relative to a control sample treated with DMSO. Assay conditions and abbreviations are available at http://www.kinase-screen.mrc.ac.uk.

The target of another assay is CAMKK beta (Homo sapiens, UniProt Q96RR4).
Text: as §1

For the next assay, the target named is CSK (Homo sapiens, UniProt P41240).
Text: as §1

A further assay has as its target DAPK1 (Homo sapiens, UniProt P53355).
Text: as §1

Another assay has as its target T1, MARK4 (Homo sapiens, UniProt Q96L34).
T1 sequence (Q96L34 1-752): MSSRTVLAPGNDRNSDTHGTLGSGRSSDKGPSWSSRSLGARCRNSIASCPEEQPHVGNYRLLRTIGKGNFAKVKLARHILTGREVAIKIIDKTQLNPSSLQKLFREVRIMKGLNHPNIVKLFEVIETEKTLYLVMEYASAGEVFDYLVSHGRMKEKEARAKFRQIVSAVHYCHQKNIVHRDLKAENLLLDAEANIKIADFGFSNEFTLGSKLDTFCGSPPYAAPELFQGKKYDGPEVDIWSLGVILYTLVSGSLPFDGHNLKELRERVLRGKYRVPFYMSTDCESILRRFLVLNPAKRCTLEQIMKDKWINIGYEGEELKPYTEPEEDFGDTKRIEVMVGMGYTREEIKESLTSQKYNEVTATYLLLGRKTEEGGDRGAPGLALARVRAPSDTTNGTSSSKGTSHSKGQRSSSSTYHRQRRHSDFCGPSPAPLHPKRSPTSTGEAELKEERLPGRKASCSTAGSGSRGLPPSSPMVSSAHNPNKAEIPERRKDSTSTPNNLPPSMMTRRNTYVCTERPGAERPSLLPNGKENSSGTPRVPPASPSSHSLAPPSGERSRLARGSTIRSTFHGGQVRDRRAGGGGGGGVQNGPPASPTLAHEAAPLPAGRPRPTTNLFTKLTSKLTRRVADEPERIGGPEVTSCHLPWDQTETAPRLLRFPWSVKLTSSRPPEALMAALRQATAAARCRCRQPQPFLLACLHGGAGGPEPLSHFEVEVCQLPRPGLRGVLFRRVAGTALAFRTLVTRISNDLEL
Text: as §1

For a further assay, the target named is T2, NEK2a (Homo sapiens, UniProt P51955).
T2 sequence (P51955 1-445): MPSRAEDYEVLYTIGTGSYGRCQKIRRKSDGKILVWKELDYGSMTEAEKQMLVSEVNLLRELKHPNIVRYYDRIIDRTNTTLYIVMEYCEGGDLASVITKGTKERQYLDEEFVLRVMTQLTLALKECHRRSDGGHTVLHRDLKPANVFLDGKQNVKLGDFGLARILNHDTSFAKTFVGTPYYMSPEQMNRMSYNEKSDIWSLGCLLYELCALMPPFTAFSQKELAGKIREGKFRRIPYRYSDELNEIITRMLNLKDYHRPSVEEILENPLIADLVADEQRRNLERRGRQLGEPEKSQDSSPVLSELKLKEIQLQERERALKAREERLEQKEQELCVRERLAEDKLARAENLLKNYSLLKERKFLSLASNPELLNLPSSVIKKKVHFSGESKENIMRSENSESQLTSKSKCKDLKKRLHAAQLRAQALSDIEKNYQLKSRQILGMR
Text: as §1

For a further assay, the target named is PAK5 (Homo sapiens, UniProt Q9P286).
Text: as §1

For the next assay, the target named is PIM1 (Homo sapiens, UniProt P11309).
Text: as §1

Another assay has as its target TrkA (Homo sapiens, UniProt P04629).
Text: as §1

The next assay deals with T3, ZAP70 (Homo sapiens, UniProt P43403).
T3 sequence (P43403 1-619): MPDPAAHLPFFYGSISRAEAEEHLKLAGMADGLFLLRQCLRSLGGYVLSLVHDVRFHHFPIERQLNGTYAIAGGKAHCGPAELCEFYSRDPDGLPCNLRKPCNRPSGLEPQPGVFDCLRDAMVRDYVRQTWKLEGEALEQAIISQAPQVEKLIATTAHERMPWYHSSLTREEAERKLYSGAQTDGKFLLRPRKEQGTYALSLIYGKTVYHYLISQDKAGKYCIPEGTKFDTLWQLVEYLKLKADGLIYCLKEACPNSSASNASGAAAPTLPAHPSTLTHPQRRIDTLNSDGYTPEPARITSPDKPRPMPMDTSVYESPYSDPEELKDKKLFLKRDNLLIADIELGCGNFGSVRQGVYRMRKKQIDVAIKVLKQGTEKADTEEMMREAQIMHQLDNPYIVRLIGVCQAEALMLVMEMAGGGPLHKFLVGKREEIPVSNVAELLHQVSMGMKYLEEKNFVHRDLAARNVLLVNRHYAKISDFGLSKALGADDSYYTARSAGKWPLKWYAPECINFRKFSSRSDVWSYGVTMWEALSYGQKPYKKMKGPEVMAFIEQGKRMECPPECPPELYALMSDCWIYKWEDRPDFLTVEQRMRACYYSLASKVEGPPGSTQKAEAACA
Text: as §1

Where two headings read alike, the source gives them in different places.

Chain of CAMKK beta (Q96RR4 whole entry): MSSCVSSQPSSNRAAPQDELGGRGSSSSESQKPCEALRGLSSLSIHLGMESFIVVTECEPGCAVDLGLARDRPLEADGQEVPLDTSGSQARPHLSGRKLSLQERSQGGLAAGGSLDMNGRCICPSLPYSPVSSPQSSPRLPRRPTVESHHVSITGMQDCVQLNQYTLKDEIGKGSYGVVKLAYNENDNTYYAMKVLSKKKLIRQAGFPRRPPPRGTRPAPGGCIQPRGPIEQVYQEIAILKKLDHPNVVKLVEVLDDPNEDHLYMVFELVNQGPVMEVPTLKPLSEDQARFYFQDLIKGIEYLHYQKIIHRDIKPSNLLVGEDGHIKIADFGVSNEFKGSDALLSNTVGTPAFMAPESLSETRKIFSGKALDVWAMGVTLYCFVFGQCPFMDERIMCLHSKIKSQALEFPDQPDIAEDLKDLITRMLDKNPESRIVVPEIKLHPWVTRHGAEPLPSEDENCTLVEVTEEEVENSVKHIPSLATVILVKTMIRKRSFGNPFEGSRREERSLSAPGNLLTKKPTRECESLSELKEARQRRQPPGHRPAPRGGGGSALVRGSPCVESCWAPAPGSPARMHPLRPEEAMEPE
Chain of CAMK1 (Q14012 whole entry): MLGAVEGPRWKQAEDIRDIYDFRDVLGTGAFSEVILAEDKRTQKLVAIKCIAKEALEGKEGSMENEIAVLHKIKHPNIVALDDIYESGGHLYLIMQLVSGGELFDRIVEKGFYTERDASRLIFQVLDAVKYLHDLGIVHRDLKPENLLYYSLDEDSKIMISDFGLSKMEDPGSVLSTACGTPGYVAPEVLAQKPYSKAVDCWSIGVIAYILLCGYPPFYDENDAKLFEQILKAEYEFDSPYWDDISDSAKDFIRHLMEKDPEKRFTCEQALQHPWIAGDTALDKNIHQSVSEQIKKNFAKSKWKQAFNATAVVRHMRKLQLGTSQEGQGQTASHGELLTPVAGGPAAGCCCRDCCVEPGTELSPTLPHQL
Chain of CSK (P41240 whole entry): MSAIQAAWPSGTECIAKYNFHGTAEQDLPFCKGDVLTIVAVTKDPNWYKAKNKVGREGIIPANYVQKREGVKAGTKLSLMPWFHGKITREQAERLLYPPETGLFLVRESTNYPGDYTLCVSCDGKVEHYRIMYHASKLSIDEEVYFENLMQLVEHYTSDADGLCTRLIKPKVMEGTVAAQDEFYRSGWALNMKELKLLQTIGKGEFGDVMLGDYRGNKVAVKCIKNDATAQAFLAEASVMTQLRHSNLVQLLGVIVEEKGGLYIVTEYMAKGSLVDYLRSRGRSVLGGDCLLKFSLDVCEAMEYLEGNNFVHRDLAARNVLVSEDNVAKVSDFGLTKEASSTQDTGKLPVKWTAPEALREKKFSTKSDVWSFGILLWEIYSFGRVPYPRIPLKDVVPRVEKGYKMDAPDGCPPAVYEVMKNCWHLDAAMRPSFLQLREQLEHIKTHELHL
Chain of TrkA (P04629 33-796): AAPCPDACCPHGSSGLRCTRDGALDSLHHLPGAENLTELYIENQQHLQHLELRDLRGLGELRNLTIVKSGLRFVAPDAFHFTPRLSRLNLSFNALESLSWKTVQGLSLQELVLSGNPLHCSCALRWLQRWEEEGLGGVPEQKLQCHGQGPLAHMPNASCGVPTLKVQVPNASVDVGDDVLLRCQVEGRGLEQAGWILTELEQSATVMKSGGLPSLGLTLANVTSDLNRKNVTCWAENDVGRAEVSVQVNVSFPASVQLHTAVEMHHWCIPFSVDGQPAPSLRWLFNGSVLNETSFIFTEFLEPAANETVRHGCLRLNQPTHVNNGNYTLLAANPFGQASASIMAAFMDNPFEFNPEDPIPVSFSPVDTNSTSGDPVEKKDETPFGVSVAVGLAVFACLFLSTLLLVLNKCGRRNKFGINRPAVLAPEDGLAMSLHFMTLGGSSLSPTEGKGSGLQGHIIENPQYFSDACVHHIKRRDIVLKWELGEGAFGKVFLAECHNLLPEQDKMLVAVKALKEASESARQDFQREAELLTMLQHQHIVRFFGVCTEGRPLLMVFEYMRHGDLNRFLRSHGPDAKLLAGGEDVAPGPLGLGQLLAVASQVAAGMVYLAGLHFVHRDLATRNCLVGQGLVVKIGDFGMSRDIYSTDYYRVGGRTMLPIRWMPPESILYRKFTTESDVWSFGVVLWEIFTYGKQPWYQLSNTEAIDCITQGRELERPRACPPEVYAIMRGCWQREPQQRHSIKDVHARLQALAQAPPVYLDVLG
Chain of PIM1 (P11309 whole entry): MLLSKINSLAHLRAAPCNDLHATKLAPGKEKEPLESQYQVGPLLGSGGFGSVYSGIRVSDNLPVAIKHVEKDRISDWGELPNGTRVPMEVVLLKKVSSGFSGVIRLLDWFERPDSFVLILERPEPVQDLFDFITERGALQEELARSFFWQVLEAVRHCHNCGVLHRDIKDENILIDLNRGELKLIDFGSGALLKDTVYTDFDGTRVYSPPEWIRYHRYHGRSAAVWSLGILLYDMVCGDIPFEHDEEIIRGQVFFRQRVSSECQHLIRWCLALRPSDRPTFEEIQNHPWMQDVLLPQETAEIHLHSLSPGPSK
Chain of PAK5 (Q9P286 whole entry): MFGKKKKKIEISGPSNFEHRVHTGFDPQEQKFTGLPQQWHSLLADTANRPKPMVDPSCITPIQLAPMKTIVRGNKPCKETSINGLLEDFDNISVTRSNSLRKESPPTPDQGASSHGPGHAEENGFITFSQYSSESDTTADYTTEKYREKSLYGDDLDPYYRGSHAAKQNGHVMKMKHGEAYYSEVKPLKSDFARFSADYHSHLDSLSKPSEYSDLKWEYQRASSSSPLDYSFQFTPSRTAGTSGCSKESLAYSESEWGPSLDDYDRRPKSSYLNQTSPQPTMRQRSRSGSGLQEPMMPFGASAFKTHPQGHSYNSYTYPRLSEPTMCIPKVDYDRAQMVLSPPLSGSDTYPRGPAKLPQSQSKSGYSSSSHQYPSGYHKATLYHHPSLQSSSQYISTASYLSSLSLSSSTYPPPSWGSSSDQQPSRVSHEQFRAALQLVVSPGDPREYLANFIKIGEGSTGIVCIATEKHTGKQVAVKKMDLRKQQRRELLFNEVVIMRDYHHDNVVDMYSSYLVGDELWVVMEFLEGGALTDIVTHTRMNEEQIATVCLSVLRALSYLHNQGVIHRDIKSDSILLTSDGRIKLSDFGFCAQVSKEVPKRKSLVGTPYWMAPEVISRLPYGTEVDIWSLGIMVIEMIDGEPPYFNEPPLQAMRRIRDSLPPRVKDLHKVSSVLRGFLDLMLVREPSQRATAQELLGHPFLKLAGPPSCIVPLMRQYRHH
Chain of DAPK1 (P53355 whole entry): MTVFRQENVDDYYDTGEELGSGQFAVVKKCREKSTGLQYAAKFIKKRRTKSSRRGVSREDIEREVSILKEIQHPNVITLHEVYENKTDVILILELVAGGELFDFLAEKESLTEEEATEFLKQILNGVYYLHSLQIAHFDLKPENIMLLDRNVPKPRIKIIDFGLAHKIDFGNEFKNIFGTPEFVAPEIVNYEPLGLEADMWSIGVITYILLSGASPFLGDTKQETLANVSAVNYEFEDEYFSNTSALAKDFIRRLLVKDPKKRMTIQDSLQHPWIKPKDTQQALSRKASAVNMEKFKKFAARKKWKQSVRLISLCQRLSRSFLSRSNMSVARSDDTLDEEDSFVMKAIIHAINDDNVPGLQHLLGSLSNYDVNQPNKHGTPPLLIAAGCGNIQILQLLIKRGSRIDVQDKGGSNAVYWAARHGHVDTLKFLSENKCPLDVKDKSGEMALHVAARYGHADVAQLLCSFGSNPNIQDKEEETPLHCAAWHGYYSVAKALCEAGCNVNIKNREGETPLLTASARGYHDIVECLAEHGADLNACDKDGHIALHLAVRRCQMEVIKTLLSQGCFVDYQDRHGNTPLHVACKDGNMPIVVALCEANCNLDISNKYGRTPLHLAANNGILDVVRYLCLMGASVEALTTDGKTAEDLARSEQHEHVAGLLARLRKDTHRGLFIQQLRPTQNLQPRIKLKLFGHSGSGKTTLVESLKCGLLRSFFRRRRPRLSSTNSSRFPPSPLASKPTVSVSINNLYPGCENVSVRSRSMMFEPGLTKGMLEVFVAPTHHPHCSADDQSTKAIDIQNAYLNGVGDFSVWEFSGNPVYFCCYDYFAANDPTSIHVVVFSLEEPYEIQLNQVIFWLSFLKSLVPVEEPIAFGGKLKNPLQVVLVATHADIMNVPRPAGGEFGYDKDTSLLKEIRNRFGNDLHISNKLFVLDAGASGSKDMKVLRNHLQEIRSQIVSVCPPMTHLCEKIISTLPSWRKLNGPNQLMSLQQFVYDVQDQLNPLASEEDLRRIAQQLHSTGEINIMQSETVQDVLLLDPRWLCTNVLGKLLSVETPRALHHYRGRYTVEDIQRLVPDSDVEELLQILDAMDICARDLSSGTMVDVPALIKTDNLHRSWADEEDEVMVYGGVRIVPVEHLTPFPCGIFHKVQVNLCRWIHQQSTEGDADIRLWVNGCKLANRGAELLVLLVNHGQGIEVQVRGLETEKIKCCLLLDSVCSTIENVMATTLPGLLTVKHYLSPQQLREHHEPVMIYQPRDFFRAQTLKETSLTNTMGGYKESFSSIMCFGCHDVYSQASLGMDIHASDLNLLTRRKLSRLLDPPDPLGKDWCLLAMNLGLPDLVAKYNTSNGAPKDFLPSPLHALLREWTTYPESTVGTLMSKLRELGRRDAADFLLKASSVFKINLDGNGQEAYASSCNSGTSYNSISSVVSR

`COc1ccc(Cl)c(S(=O)(=O)Nc2ccc(-c3nc(OC[C@H]4CNCCO4)c4c(C)n[nH]c4n3)cc2)c1` [290-R, reference compound]: the remaining activity – broadly, the signal under treatment as a percentage of the control signal – at 1 µM on CAMK1 is 3%; on CAMKK beta it was 77%; on CSK, 66%; on DAPK1, 87%; at MARK4, 98%; on NEK2a, 74%. The remaining activity at 1 µM was determined as 110% at PAK5, 83% at PIM1, 104% at TrkA and 98% on ZAP70.

Take `Cc1ccc(F)c(S(=O)(=O)Nc2ccc(-c3nc(OC[C@H]4CNCCO4)c4cn[nH]c4n3)cc2)c1` [308-R, reference compound]: the remaining activity at 1 µM came to 22% at CAMK1; 106% at CAMKK beta; 96% on CSK; 91% at DAPK1; 73% on MARK4; 67% on NEK2a. For the same compound, the remaining activity at 1 µM on PAK5 stood at 83%; on PIM1 it was 104%; at TrkA, 71%; on ZAP70, 101%.

Turning to `Cc1ccc(F)c(S(=O)(=O)Nc2ccc(-c3nc(OC[C@H]4CN(CCCCCCOCCOCCOCC(=O)N[C@H](C(=O)N5C[C@H](O)C[C@H]5C(=O)NCc5ccc(-c6scnc6C)cc5)C(C)(C)C)CCO4)c4cn[nH]c4n3)cc2)c1` [SGK3-PROTAC1], the remaining activity at 1 µM on CAMK1 (1 µM) was 86%; at CAMKK beta (1 µM), 99%; on CSK (1 µM), 118%; on DAPK1 (1 µM), 100%; at MARK4 (1 µM), 105%; on NEK2a (1 µM), 162%. In addition, the remaining activity at 1 µM at PAK5 (1 µM) worked out at 88%; on PIM1 (1 µM), 94%; on TrkA (1 µM), 112%; on ZAP70 (1 µM), 75%.

With `Cc1ccc(F)c(S(=O)(=O)Nc2ccc(-c3nc(OC[C@H]4CN(CCCCCCOCCOCCOCC(=O)N[C@H](C(=O)N5C[C@@H](O)C[C@H]5C(=O)NCc5ccc(-c6scnc6C)cc5)C(C)(C)C)CCO4)c4cn[nH]c4n3)cc2)c1` [cisSGK3-PROTAC1], the remaining activity at 1 µM on CAMK1 (1 µM) is 105%; on CAMKK beta (1 µM), 108%; on CSK (1 µM), 113%; on DAPK1 (1 µM), 108%; on MARK4 (1 µM), 100%; at NEK2a (1 µM), 139%. The remaining activity at 1 µM at PAK5 (1 µM) is 105%; at PIM1 (1 µM) it was 97%; at TrkA (1 µM), 102%; at ZAP70 (1 µM), 75%.
